In ChEMBL document CHEMBL1141041, “Discovery of halogenated eurypamide B analogues as inhibitors of lipid droplet accumulation in macrophages” (Bioorg Med Chem Lett, 2005):

Test: Inhibition of lipid droplets accumulation in mouse peritoneal macrophages as a model of macrophage-derived foam-cell formation
Assay type: functional

Structure (SMILES)	IC50 [µM]
C[C@@H](O)[C@@H]1NC(=O)[C@@H](N)Cc2ccc(O)c(c2)Oc2ccc(cc2)C[C@@H](C(=O)O)NC1=O	> 22.6
COC(=O)[C@@H]1Cc2ccc(cc2)Oc2cc(ccc2O)C[C@H](N)C(=O)NC([C@@H](C)OCc2ccccc2)C(=O)N1 (stereo partly specified)	> 12.1
C[C@@H](O)C1NC(=O)[C@@H](NC(=O)OC(C)(C)C)Cc2ccc(O)c(c2)Oc2ccc(cc2)C[C@@H](C(=O)O)NC1=O (stereo partly specified)	> 12.1
C[C@@H](OCc1ccccc1)C1NC(=O)[C@@H](NC(=O)Oc2ccccc2)Cc2ccc(O)c(c2)Oc2ccc(cc2)C[C@@H](C(=O)O)NC1=O (stereo partly specified)	3.1
COC(=O)[C@@H]1Cc2ccc(cc2)Oc2cc(ccc2O)C[C@H](N)C(=O)N[C@@H]([C@@H](C)O)C(=O)N1	> 13.5
C[C@@H](OCc1ccccc1)C1NC(=O)[C@@H](NC(=O)OC(C)(C)C)Cc2ccc(O)c(c2)Oc2ccc(cc2)C[C@@H](C(=O)O)NC1=O (stereo partly specified)	3.2
